For 31 compounds, IC50 results are on record in patent US10118930B2, “Piperidinylpyrazolopyrimidinones and their use” (BAYER PHARMA AKTIENGESELLSCHAFT, priority 2015, dated 2018).

Counter-ions that a name gives are not always drawn.

By IC50 is commonly meant the concentration that inhibits the measured activity by half.

In the assay the test system is clot lysis (fibrinolysis) in diluted human citrated plasma, tPA-induced. The assay is described as follows: Plasma-based clot lysis assay (5%). The assay is classed as biochemical. The settings on record: human citrated platelet-poor plasma 5%, fibrinogen 3 μM, CaCl2 10 mM, tPA 0.2 nM, 37° C., OD at 405 nm. The gist of the method:
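Compounds added to 5% platelet-poor citrated human plasma with 3 μM fibrinogen in 20 mM HEPES, 150 mM NaCl, 0.01% Brij, pH 7. Clotting and lysis started with 10 mM CaCl2 and 0.2 nM tPA at 37° C. IC50 derived by comparing time courses with a blank control reaction.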

The compound `O=c1cc(C2CCNCC2)n2ncc(-c3noc(-c4ccccc4F)n3)c2[nH]1` [Example 216, 3-[5-(2-fluorophenyl)-1,2,4-oxadiazol-3-yl]-7-(piperidin-4-yl)pyrazolo[1,5-a]pyrimidin-5 (4H)-one hydrochloride] came in with a concentration for half-maximal inhibition (IC50) of 34 nM.

`O=c1cc(C2CCNCC2)n2ncc(-c3noc(Cc4cccc(Cl)c4)n3)c2[nH]1` [Example 217, 3-[5-(3-chlorobenzyl)-1,2,4-oxadiazol-3-yl]-7-(piperidin-4-yl)pyrazolo[1,5-a]pyrimidin-5(4H)-one hydrochloride] registered a concentration for half-maximal inhibition (IC50) of 36 nM.

Compound `O=c1cc(C2CCNCC2)n2ncc(-c3noc(-c4cccc(Cl)c4F)n3)c2[nH]1` [Example 218, 3-[5-(3-chloro-2-fluorophenyl)-1,2,4-oxadiazol-3-yl]-7-(piperidin-4-yl)pyrazolo[1,5-a]pyrimidin-5(4H)-one hydrochloride] showed a half-maximal inhibitory concentration (IC50) of 54 nM.

Turning to `COc1ccccc1-c1nc(-c2cnn3c(C4CCNCC4)cc(=O)[nH]c23)no1` [Example 219, 3-[5-(2-methoxyphenyl)-1,2,4-oxadiazol-3-yl]-7-(piperidin-4-yl)pyrazolo[1,5-a]pyrimidin-5(4H)-one hydrochloride], the concentration for half-maximal inhibition (IC50) turned out to be 35 nM.

On to `Cc1ccc(-c2nc(-c3cnn4c(C5CCNCC5)cc(=O)[nH]c34)no2)cc1` [Example 220, 3-[5-(4-methylphenyl)-1,2,4-oxadiazol-3-yl]-7-(piperidin-4-yl)pyrazolo[1,5-a]pyrimidin-5 (4H)-one hydrochloride], for which the half-inhibitory concentration (IC50) worked out at 15 nM.

For `O=C(O)c1noc(-c2cnn3c(C4CCNCC4)cc(=O)[nH]c23)n1` [Example 221, 5-[5-oxo-7-(piperidin-4-yl)-4,5-dihydropyrazolo[1,5-a]pyrimidin-3-yl]-1,2,4-oxadiazole-3-carboxylic acid hydrochloride], half-maximal inhibition (IC50) was put at 48 nM.

In turn, `O=c1cc(C2CCNCC2)n2ncc(-c3nc(Cc4cccc(C(F)(F)F)c4)no3)c2[nH]1` [Example 222, 7-(piperidin-4-yl)-3-{3-[3-(trifluoromethyl)benzyl]-1,2,4-oxadiazol-5-yl}pyrazolo[1,5-a]pyrimidin-5(4H)-one hydrochloride] returned an IC50 of 37 nM.

With `CC(C)(c1ccccc1)c1noc(-c2cnn3c(C4CCNCC4)cc(=O)[nH]c23)n1` [Example 223, 3-[3-(2-phenylpropan-2-yl)-1,2,4-oxadiazol-5-yl]-7-(piperidin-4-yl)pyrazolo[1,5-a]pyrimidin-5(4H)-one hydrochloride], the IC50 stood at 31 nM.

Compound `O=c1cc(C2CCNCC2)n2ncc(-c3nc(Cc4ccc(F)cc4)no3)c2[nH]1` [Example 224, 3-[3-(4-fluorobenzyl)-1,2,4-oxadiazol-5-yl]-7-(piperidin-4-yl)pyrazolo[1,5-a]pyrimidin-5(4H)-one hydrochloride] came in with a half-inhibitory concentration (IC50) of 9.7 nM.

`O=c1cc(C2CCNCC2)n2ncc(-c3noc(-c4cccc(Cl)c4)n3)c2[nH]1` [Example 226, 3-[5-(3-chlorophenyl)-1,2,4-oxadiazol-3-yl]-7-(piperidin-4-yl)pyrazolo[1,5-a]pyrimidin-5 (4H)-one hydrochloride] yielded a half-maximal inhibitory concentration (IC50) of 35 nM.

As for `O=c1cc(C2CCNCC2)n2ncc(-c3noc(-c4cccc(C(F)(F)F)c4)n3)c2[nH]1` [Example 227, 7-(piperidin-4-yl)-3-{5-[3-(trifluoromethyl)phenyl]-1,2,4-oxadiazol-3-yl}pyrazolo[1,5-a]pyrimidin-5(4H)-one hydrochloride], the midpoint of inhibition, the IC50, lay at 34 nM. The IC50 values of the last two compounds are within 1.5-fold of each other.

Compound `O=c1cc(C2CCNCC2)n2ncc(-c3noc(Cc4ccccc4)n3)c2[nH]1` [Example 228, 3-(5-benzyl-1,2,4-oxadiazol-3-yl)-7-(piperidin-4-yl)pyrazolo[1,5-a]pyrimidin-5(4H)-one hydrochloride] displayed an IC50 of 33 nM.

For `Cc1ccc(Cl)cc1-c1nc(-c2cnn3c(C4CCNCC4)cc(=O)[nH]c23)no1` [Example 230, 3-[5-(5-chloro-2-methylphenyl)-1,2,4-oxadiazol-3-yl]-7-(piperidin-4-yl)pyrazolo[1,5-a]pyrimidin-5(4H)-one hydrochloride], the half-inhibitory concentration (IC50) was 36 nM. The IC50 values of the last two compounds are within 1.5-fold of each other.

On to `O=c1cc(C2CCNCC2)n2ncc(-c3noc(-c4ccc(C(F)(F)F)cc4)n3)c2[nH]1` [Example 231, 7-(piperidin-4-yl)-3-{5-[4-(trifluoromethyl)phenyl]-1,2,4-oxadiazol-3-yl}pyrazolo[1,5-a]pyrimidin-5(4H)-one hydrochloride], for which it took 34 nM to reach half-maximal inhibition (IC50). This IC50 and that of the compound before are within 1.5-fold of each other.

`O=c1cc(C2CCNCC2)n2ncc(-c3noc(-c4ccc(C(F)(F)F)cc4Cl)n3)c2[nH]1` [Example 232, 3-{5-[2-chloro-4-(trifluoromethyl)phenyl]-1,2,4-oxadiazol-3-yl}-7-(piperidin-4-yl)pyrazolo[1,5-a]pyrimidin-5(4H)-one hydrochloride]: the 50% inhibitory concentration (IC50) is 71 nM. This IC50 is about 2.1-fold higher than that of the compound before.

Compound `O=c1cc(C2CCNCC2)n2ncc(-c3noc(-c4ccc(Cl)cc4)n3)c2[nH]1` [Example 233, 3-[5-(4-chlorophenyl)-1,2,4-oxadiazol-3-yl]-7-(piperidin-4-yl)pyrazolo[1,5-a]pyrimidin-5(4H)-one hydrochloride] came in with a concentration for half-maximal inhibition (IC50) of 36 nM.

The compound `O=c1cc(C2CCNCC2)n2ncc(-c3noc(-c4cc(Cl)cc(Cl)c4)n3)c2[nH]1` [Example 234, 3-[5-(3,5-dichlorophenyl)-1,2,4-oxadiazol-3-yl]-7-(piperidin-4-yl)pyrazolo[1,5-a]pyrimidin-5(4H)-one hydrochloride] had an IC50 of 35 nM. This IC50 and that of the compound before are within 1.5-fold of each other.

Take `O=c1cc(C2CCNCC2)n2ncc(-c3nc(C(O)c4ccccc4)no3)c2[nH]1` (stereo not shown) [Example 238, 3-{3-[hydroxy(phenyl)methyl]-1,2,4-oxadiazol-5-yl}-7-(piperidin-4-yl)pyrazolo[1,5-a]pyrimidin-5(4H)-one hydrochloride]: the IC50 amounted to 28 nM.

In turn, `COc1ccc(C(C)(C)c2nc(-c3cnn4c(C5CCNCC5)cc(=O)[nH]c34)no2)cc1` [Example 242, 3-{5-[2-(4-methoxyphenyl)propan-2-yl]-1,2,4-oxadiazol-3-yl}-7-(piperidin-4-yl)pyrazolo[1,5-a]pyrimidin-5(4H)-one hydrochloride] displayed a half-maximal inhibitory concentration (IC50) of 20 nM.

`COc1ccc(C2(c3nc(-c4cnn5c(C6CCNCC6)cc(=O)[nH]c45)no3)CC2)cc1` [Example 245, 3-{5-[1-(4-methoxyphenyl)cyclopropyl]-1,2,4-oxadiazol-3-yl}-7-(piperidin-4-yl)pyrazolo[1,5-a]pyrimidin-5(4H)-one hydrochloride] had a concentration for half-maximal inhibition (IC50) of 29 nM.

Turning to `COc1ccc(Cc2nc(-c3cnn4c(C5CCNCC5)cc(=O)[nH]c34)no2)cn1` [Example 251, 3-{5-[(6-methoxypyridin-3-yl)methyl]-1,2,4-oxadiazol-3-yl}-7-(piperidin-4-yl)pyrazolo[1,5-a]pyrimidin-5(4H)-one hydrochloride], the IC50 stood at 31 nM. This IC50 and that of the compound before are within 1.5-fold of each other.

Turning to `CC(C)Oc1ccc(Cc2nc(-c3cnn4c(C5CCNCC5)cc(=O)[nH]c34)no2)cc1` [Example 252, 7-(piperidin-4-yl)-3-{5-[4-(propan-2-yloxy)benzyl]-1,2,4-oxadiazol-3-yl}pyrazolo[1,5-a]pyrimidin-5(4H)-one hydrochloride], the IC50 was 24 nM.

`CC(C)(c1ccc(F)cc1)c1noc(-c2cnn3c(C4CCNCC4)cc(=O)[nH]c23)n1` [Example 255, 3-{3-[2-(4-fluorophenyl)propan-2-yl]-1,2,4-oxadiazol-5-yl}-7-(piperidin-4-yl)pyrazolo[1,5-a]pyrimidin-5(4H)-one hydrochloride] returned a half-maximal inhibitory concentration (IC50) of 17 nM.

In the case of `CC(C)c1nc(-c2cnn3c(C4CCNCC4)cc(=O)[nH]c23)no1` [Example 256, 7-(piperidin-4-yl)-3-[5-(propan-2-yl)-1,2,4-oxadiazol-3-yl]pyrazolo[1,5-a]pyrimidin-5(4H)-one hydrochloride], the IC50 turned out to be 28 nM.

Regarding `CCc1nc(-c2cnn3c(C4CCNCC4)cc(=O)[nH]c23)no1` [Example 262, 3-(5-ethyl-1,2,4-oxadiazol-3-yl)-7-(piperidin-4-yl)pyrazolo[1,5-a]pyrimidin-5(4H)-one hydrochloride], the midpoint of inhibition, the IC50, lay at 23 nM.

Turning to `CC(C)N1CCC(c2noc(-c3cnn4c(C5CCNCC5)cc(=O)[nH]c34)n2)CC1` [Example 264, 7-(piperidin-4-yl)-3-{3-[1-(propan-2-yl)piperidin-4-yl]-1,2,4-oxadiazol-5-yl}pyrazolo[1,5-a]pyrimidin-5(4H)-one hydrochloride], the IC50 turned out to be 200 nM.

In the case of `CCc1cnn2c(C3CCNCC3)cc(=O)[nH]c12` [Example 265, 3-ethyl-7-(piperidin-4-yl)pyrazolo[1,5-a]pyrimidin-5(4H)-one hydrochloride], the IC50 was found to be 340 nM. This IC50 is about 1.7-fold higher than that of the compound before.

With `CC(C)(c1nnc(-c2cnn3c(C4CCNCC4)cc(=O)[nH]c23)o1)n1cncn1` [Example 275, 7-(piperidin-4-yl)-3-{5-[2-(1H-1,2,4-triazol-1-yl)propan-2-yl]-1,3,4-oxadiazol-2-yl}pyrazolo[1,5-a]pyrimidin-5(4H)-one hydrochloride], the IC50 is 20 nM.

In the case of `O=c1cc(C2CCNCC2)n2ncc(-c3nnc(Cc4ccccc4Cl)o3)c2[nH]1` [Example 276, 3-[5-(2-chlorobenzyl)-1,3,4-oxadiazol-2-yl]-7-(piperidin-4-yl)pyrazolo[1,5-a]pyrimidin-5(4H)-one hydrochloride], the IC50 was 14 nM. This IC50 and that of the compound before are within 1.5-fold of each other.

Compound `O=c1cc(C2CCNCC2)n2ncc(-c3nnc(C4(c5ccc(Cl)cc5)CC4)o3)c2[nH]1` [Example 278, 3-{5-[1-(4-chlorophenyl)cyclopropyl]-1,3,4-oxadiazol-2-yl}-7-(piperidin-4-yl)pyrazolo[1,5-a]pyrimidin-5(4H)-one hydrochloride] showed a 50% inhibitory concentration (IC50) of 19 nM.

Compound `O=c1cc(C2CCNCC2)n2ncc(-c3nnc(Cc4c(F)cccc4Cl)o3)c2[nH]1` [Example 279, 3-[5-(2-chloro-6-fluorobenzyl)-1,3,4-oxadiazol-2-yl]-7-(piperidin-4-yl)pyrazolo[1,5-a]pyrimidin-5(4H)-one hydrochloride] displayed an IC50 of 25 nM.
